Test results reported in patent US6737383B1, “Herbicidal oxadiazolidines” (priority 1999, dated 2004).

Legend:
purple nutsedge = experiment: Test B pre/postemergence purple nutsedge; format: in vivo, Cyperus rotundus
In short: (§1)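 Response is a visual 0-to-10 score relative to untreated plants, where 0 means no effect and 10 means complete control, taken twelve to sixteen days after application. Treatments went onto soil at planting and onto foliage of 1- to 4-leaf plants, using a surfactant-containing non-phytotoxic solvent.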

giant foxtail = experiment: Test B pre/postemergence giant foxtail; format: in vivo, Setaria faberii
In short: as §1

soybean = experiment: Test B pre/postemergence soybean; format: in vivo, Glycine max
In short: as §1

crabgrass = experiment: Test B pre/postemergence crabgrass; format: in vivo, Digitaria sanguinalis
In short: as §1

morningglory = experiment: Test B pre/postemergence morningglory; format: in vivo, Ipomoea hederacea
In short: as §1

duck salad = experiment: Test B flood test duck salad; format: in vivo, Heteranthera limosa
In short: (§2)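 Flood test on plants grown to the 2-leaf stage; treated plants kept in greenhouse twelve to sixteen days, then visually rated against controls on a 0 (no effect) to 10 (complete control) scale.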

corn = experiment: Test B pre/postemergence corn; format: in vivo, Zea mays
In short: as §1

wild oat = experiment: Test B pre/postemergence wild oat; format: in vivo, Avena fatua
In short: as §1

wheat = experiment: Test B pre/postemergence wheat; format: in vivo, Triticum aestivum
In short: as §1

bedstraw = experiment: Test B pre/postemergence bedstraw; format: in vivo, Galium aparine
In short: as §1

pigweed = experiment: Test B pre/postemergence pigweed; format: in vivo, Amaranthus retroflexus
In short: as §1

blackgrass = experiment: Test B pre/postemergence blackgrass; format: in vivo, Alopecurus myosuroides
In short: as §1

velvetleaf = experiment: Test B pre/postemergence velvetleaf; format: in vivo, Abutilon theophrasti
In short: as §1

rice = experiment: Test B flood test rice; format: in vivo, Oryza sativa
In short: as §2

surinam grass = experiment: Test B pre/postemergence surinam grass; format: in vivo, Brachiaria decumbens
In short: as §1

smallflower flatsedge = experiment: Test B flood test smallflower flatsedge; format: in vivo, Cyperus difformis
In short: as §2

[1] = Postemergence, Rate 62 g/ha, scale 0 to 10, 0 is no effect, 10 is complete control
[2] = Postemergence, Rate 250 g/ha, scale 0 to 10, 0 no effect, 10 complete control
[3] = Preemergence, Rate 62 g/ha, scale 0 to 10 (0 no effect, 10 complete control)
[4] = Preemergence, Rate 125 g/ha, scale 0 to 10 (0 no effect, 10 complete control)
[5] = Preemergence, Rate 250 g/ha, scale of 0 to 10 where 0 is no effect and 10 is complete control
[6] = Preemergence, Rate 500 g/ha, scale 0 (no effect) to 10 (complete control)
[7] = Rate 125 g/ha, Postemergence, scale 0 to 10, 0 no effect, 10 complete control
[8] = Rate 500 g/ha, Postemergence, scale 0 to 10, 0 no effect, 10 complete control
[9] = Rate 125 g/ha, Postemergence section (flood test species), scale 0 to 10, 0 no effect, 10 complete control
[10] = Rate 500 g/ha, listed under Postemergence (flood test species), scale 0 to 10, 0 no effect, 10 complete control
[11] = flood test, listed under Postemergence, Rate 250 g/ha, scale 0 to 10, 0 no effect, 10 complete control

## CCN(CC)C(=O)n1oc(=O)n(Cc2cccs2)c1=O [Compound 77]
Purple nutsedge; [1]
  Nutsedge plant response rating: 0
Purple nutsedge; [2]
  Nutsedge plant response rating: 0
Purple nutsedge; [3]
  Nutsedge plant response rating: 0
Purple nutsedge; [4]
  Plant response rating, Nutsedge: 2
Purple nutsedge; [5]
  Plant response rating, Nutsedge: 3
Purple nutsedge; [6]
  Nutsedge plant response rating: 6
Purple nutsedge; [7]
  Nutsedge plant response rating: 0
Purple nutsedge; [8]
  Nutsedge plant response rating: 0
Giant foxtail; [1]
  Giant foxtail plant response rating: 0
Giant foxtail; [2]
  Giant foxtail plant response rating: 0
Giant foxtail; [3]
  Giant foxtail plant response rating: 0
Giant foxtail; [4]
  Plant response rating, Giant foxtail: 0
Giant foxtail; [5]
  Plant response rating, Giant foxtail: 3
Giant foxtail; [6]
  Giant foxtail plant response rating: 5
Giant foxtail; [7]
  Giant foxtail plant response rating: 0
Giant foxtail; [8]
  Giant foxtail plant response rating: 2
soybean; [1]
  Soybean plant response rating: 0
soybean; [2]
  Soybean plant response rating: 1
soybean; [3]
  Soybean plant response rating: 0
soybean; [4]
  Plant response rating, Soybean: 0
soybean; [5]
  Plant response rating, Soybean: 0
soybean; [6]
  Soybean plant response rating: 0
soybean; [7]
  Soybean plant response rating: 0
soybean; [8]
  Soybean plant response rating: 1
crabgrass; [1]
  Crabgrass plant response rating: 0
crabgrass; [2]
  Crabgrass plant response rating: 0
crabgrass; [3]
  Crabgrass plant response rating: 0
crabgrass; [4]
  Plant response rating, Crabgrass: 2
crabgrass; [5]
  Plant response rating, Crabgrass: 2
crabgrass; [6]
  Crabgrass plant response rating: 3
crabgrass; [7]
  Crabgrass plant response rating: 0
crabgrass; [8]
  Crabgrass plant response rating: 0
morningglory; [1]
  Morningglory plant response rating: 0
morningglory; [2]
  Morningglory plant response rating: 0
morningglory; [3]
  Morningglory plant response rating: 0
morningglory; [4]
  Plant response rating, Morningglory: 0
morningglory; [5]
  Plant response rating, Morningglory: 0
morningglory; [6]
  Morningglory plant response rating: 0
morningglory; [7]
  Morningglory plant response rating: 0
morningglory; [8]
  Morningglory plant response rating: 0
Duck salad; [1]
  Ducksalad plant response rating: 0
Duck salad; [9]
  Ducksalad plant response rating: 0
Duck salad; [10]
  Ducksalad plant response rating: 0
Duck salad; [11]
  Ducksalad plant response rating: 0
corn; [1]
  Corn plant response rating: 0
corn; [2]
  Corn plant response rating: 0
corn; [3]
  Corn plant response rating: 0
corn; [4]
  Plant response rating, Corn: 0
corn; [5]
  Plant response rating, Corn: 0
corn; [6]
  Corn plant response rating: 0
corn; [7]
  Corn plant response rating: 0
corn; [8]
  Corn plant response rating: 0
Wild oat; [1]
  Wild oats plant response rating: 0
Wild oat; [2]
  Wild oats plant response rating: 0
Wild oat; [3]
  Wild oats plant response rating: 0
Wild oat; [4]
  Plant response rating, Wild oats: 0
Wild oat; [5]
  Plant response rating, Wild oats: 0
Wild oat; [6]
  Wild oats plant response rating: 0
Wild oat; [7]
  Wild oats plant response rating: 0
Wild oat; [8]
  Wild oats plant response rating: 3
wheat; [1]
  Wheat plant response rating: 0
wheat; [2]
  Wheat plant response rating: 0
wheat; [3]
  Wheat plant response rating: 0
wheat; [4]
  Plant response rating, Wheat: 0
wheat; [5]
  Plant response rating, Wheat: 0
wheat; [6]
  Wheat plant response rating: 0
wheat; [7]
  Wheat plant response rating: 0
wheat; [8]
  Wheat plant response rating: 4
bedstraw; [1]
  Bedstraw plant response rating: 0
bedstraw; [2]
  Bedstraw plant response rating: 0
bedstraw; [3]
  Bedstraw plant response rating: 0
bedstraw; [4]
  Plant response rating, Bedstraw: 0
bedstraw; [5]
  Plant response rating, Bedstraw: 0
bedstraw; [6]
  Bedstraw plant response rating: 0
bedstraw; [7]
  Bedstraw plant response rating: 0
bedstraw; [8]
  Bedstraw plant response rating: 0
pigweed; [1]
  Redroot pigweed plant response rating: 0
pigweed; [2]
  Redroot pigweed plant response rating: 0
pigweed; [3]
  Redroot pigweed plant response rating: 0
pigweed; [4]
  Plant response rating, Redroot pigweed: 0
pigweed; [5]
  Plant response rating, Redroot pigweed: 0
pigweed; [6]
  Redroot pigweed plant response rating: 0
pigweed; [7]
  Redroot pigweed plant response rating: 0
pigweed; [8]
  Redroot pigweed plant response rating: 0
blackgrass; [1]
  Blackgrass plant response rating: 0
blackgrass; [2]
  Blackgrass plant response rating: 0
blackgrass; [3]
  Blackgrass plant response rating: 0
blackgrass; [4]
  Plant response rating, Blackgrass: 0
blackgrass; [5]
  Plant response rating, Blackgrass: 0
blackgrass; [6]
  Blackgrass plant response rating: 0
blackgrass; [7]
  Blackgrass plant response rating: 0
blackgrass; [8]
  Blackgrass plant response rating: 4
velvetleaf; [1]
  Velvetleaf plant response rating: 0
velvetleaf; [2]
  Velvetleaf plant response rating: 0
velvetleaf; [3]
  Velvetleaf plant response rating: 0
velvetleaf; [4]
  Plant response rating, Velvetleaf: 0
velvetleaf; [5]
  Plant response rating, Velvetleaf: 0
velvetleaf; [6]
  Velvetleaf plant response rating: 3
velvetleaf; [7]
  Velvetleaf plant response rating: 0
velvetleaf; [8]
  Velvetleaf plant response rating: 0
rice; [1]
  Rice plant response rating: 0
rice; [9]
  Rice plant response rating: 0
rice; [10]
  Rice plant response rating: 0
rice; [11]
  Rice plant response rating: 0
Surinam grass; [1]
  B. signalgrass plant response rating: 0
Surinam grass; [2]
  B. signalgrass plant response rating: 0
Surinam grass; [3]
  B. signalgrass plant response rating: 0
Surinam grass; [4]
  Plant response rating, B. signalgrass: 0
Surinam grass; [5]
  Plant response rating, B. signalgrass: 0
Surinam grass; [6]
  B. signalgrass plant response rating: 0
Surinam grass; [7]
  B. signalgrass plant response rating: 0
Surinam grass; Rate 500 g/ha, Postemergence, scale of 0 to 10 where 0 is no effect and 10 is complete control
  B. signalgrass plant response rating: 2
Smallflower flatsedge; [1]
  S. Flatsedge plant response rating: 0
Smallflower flatsedge; [9]
  S. Flatsedge plant response rating: 0
Smallflower flatsedge; [10]
  S. Flatsedge plant response rating: 3
Smallflower flatsedge; [11]
  S. Flatsedge plant response rating: 0
